Assay results reported in patent US12227495B2, “Herbicidal compounds” (SYNGENTA CROP PROTECTION AG, priority 2018, dated 2025).

Legend:
Format in all cases: in vivo
Settings in all cases: evaluated after 13 days
[1] = system: Amaranthus retoflexus (AMARE); test: Post-emergence herbicide test, glasshouse, percentage damage
How it was run: (§1)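 Percentage damage, recorded 13 days after treatment, is given as a five-point score (1=0-20%, 2=21-40%, 3=41-60%, 4=61-80%, 5=81-100%). Plants grown in soil pots under 24/16 °C, 14 h light and 65% humidity received a 500 g/ha spray (unless stated otherwise).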

[2] = system: Echinochloa crus-galli (ECHCG); test: as above
How it was run: as §1

[3] = system: Ipomoea hederacea (IPOHE); test: as above
How it was run: as §1

Lolium perenne (LOLPE) [4] = test: as above
How it was run: as §1

Setaria faberi (SETFA) [5] = test: as above
How it was run: as §1

Solanum nigrum (SOLNI) [6] = test: as above
How it was run: as §1

[7] = system: Amaranthus retoflexus (AMARE); test: Pre-emergence herbicide test, glasshouse, percentage damage
How it was run: as §1

[8] = system: Echinochloa crus-galli (ECHCG); test: as above
How it was run: as §1

[9] = system: Ipomoea hederacea (IPOHE); test: as above
How it was run: as §1

Lolium perenne (LOLPE) [10] = test: as above
How it was run: as §1

Setaria faberi (SETFA) [11] = test: as above
How it was run: as §1

Solanum nigrum (SOLNI) [12] = test: as above
How it was run: as §1

Structure (SMILES)	percentage damage caused to the plant, AMARE ([1]; 1000 g/ha)	percentage damage caused to the plant, ECHCG ([2]; 1000 g/ha)	percentage damage caused to the plant, IPOHE ([3]; 1000 g/ha)	percentage damage caused to the plant, LOLPE (Lolium perenne (LOLPE) [4]; 1000 g/ha)	percentage damage caused to the plant, SETFA (Setaria faberi (SETFA) [5]; 1000 g/ha)	percentage damage caused to the plant, SOLNI (Solanum nigrum (SOLNI) [6]; 1000 g/ha)	Pre-emergence Test AMARE percentage damage (five point scale) ([7]; rate 1000 g/ha)	Pre-emergence Test ECHCG percentage damage (five point scale) ([8]; rate 1000 g/ha)	Pre-emergence Test IPOHE percentage damage (five point scale) ([9]; rate 1000 g/ha)	Pre-emergence Test LOLPE percentage damage (five point scale) (Lolium perenne (LOLPE) [10]; rate 1000 g/ha)	Pre-emergence Test SETFA percentage damage (five point scale) (Setaria faberi (SETFA) [11]; rate 1000 g/ha)	Pre-emergence Test SOLNI percentage damage (five point scale) (Solanum nigrum (SOLNI) [12]; rate 1000 g/ha)	also measured
FC(F)c1cc(-c2c(Br)cccc2Oc2ccc(Br)cn2)on1 [Compound A106]	5 (5=81-100%)	4 (4=61-80%)	4 (4=61-80%)	5 (5=81-100%)	5 (5=81-100%)	5 (5=81-100%)	4 (4=61-80%)	5 (5=81-100%)	3 (3=41-60%)	5 (5=81-100%)	5 (5=81-100%)	3 (3=41-60%)	
Fc1cccc(Oc2cc(C(F)(F)F)ccn2)c1-c1cc(C(F)F)no1 [Compound A8]													percentage damage caused to the plant, AMARE ([1]; 500 g/ha): 2 (2=21-40%); percentage damage caused to the plant, ECHCG ([2]; 500 g/ha): 2 (2=21-40%); percentage damage caused to the plant, IPOHE ([3]; 500 g/ha): 1 (1=0-20%); percentage damage caused to the plant, LOLPE (Lolium perenne (LOLPE) [4]; 500 g/ha): 1 (1=0-20%); percentage damage caused to the plant, SETFA (Setaria faberi (SETFA) [5]; 500 g/ha): 4 (4=61-80%); percentage damage caused to the plant, SOLNI (Solanum nigrum (SOLNI) [6]; 500 g/ha): 5 (5=81-100%); Pre-emergence Test AMARE percentage damage (five point scale) ([7]; rate 500 g/ha): 5 (5=81-100%); Pre-emergence Test ECHCG percentage damage (five point scale) ([8]; rate 500 g/ha): 2 (2=21-40%); Pre-emergence Test IPOHE percentage damage (five point scale) ([9]; rate 500 g/ha): 1 (1=0-20%); Pre-emergence Test LOLPE percentage damage (five point scale) (Lolium perenne (LOLPE) [10]; rate 500 g/ha): 1 (1=0-20%); Pre-emergence Test SETFA percentage damage (five point scale) (Setaria faberi (SETFA) [11]; rate 500 g/ha): 3 (3=41-60%); Pre-emergence Test SOLNI percentage damage (five point scale) (Solanum nigrum (SOLNI) [12]; rate 500 g/ha): 4 (4=61-80%)
N#Cc1cccc(Oc2ccc(Cl)cn2)c1-n1cc(C(F)(F)F)cn1 [Compound A32]	5 (5=81-100%)	5 (5=81-100%)	5 (5=81-100%)	5 (5=81-100%)	5 (5=81-100%)	5 (5=81-100%)	5 (5=81-100%)	5 (5=81-100%)	5 (5=81-100%)	4 (4=61-80%)	5 (5=81-100%)	5 (5=81-100%)	
Fc1cccc(Oc2cc(C(F)(F)F)c(C(F)(F)F)cn2)c1-c1cc(C(F)F)no1 [Compound A78]	3 (3=41-60%)	1 (1=0-20%)	1 (1=0-20%)	1 (1=0-20%)	1 (1=0-20%)	4 (4=61-80%)	1 (1=0-20%)	1 (1=0-20%)	1 (1=0-20%)	1 (1=0-20%)	2 (2=21-40%)	1 (1=0-20%)	
Fc1cc(Br)cnc1Oc1cccc(F)c1-c1cc(C(F)F)no1 [Compound A20]	5 (5=81-100%)	4 (4=61-80%)	5 (5=81-100%)	4 (4=61-80%)	4 (4=61-80%)	5 (5=81-100%)	4 (4=61-80%)	5 (5=81-100%)	3 (3=41-60%)	5 (5=81-100%)	5 (5=81-100%)	3 (3=41-60%)	
N#Cc1cc(C(F)(F)F)cnc1Oc1cccc(Cl)c1-c1cc(C(F)F)no1 [Compound A118]	5 (5=81-100%)	5 (5=81-100%)	5 (5=81-100%)	5 (5=81-100%)	5 (5=81-100%)	5 (5=81-100%)	5 (5=81-100%)	5 (5=81-100%)	4 (4=61-80%)	5 (5=81-100%)	5 (5=81-100%)	4 (4=61-80%)	
N#Cc1cccc(Oc2ncc(F)cc2F)c1-n1cc(C(F)(F)F)cn1 [Compound A34]	5 (5=81-100%)	5 (5=81-100%)	5 (5=81-100%)	5 (5=81-100%)	5 (5=81-100%)	5 (5=81-100%)	5 (5=81-100%)	5 (5=81-100%)	5 (5=81-100%)	5 (5=81-100%)	5 (5=81-100%)	5 (5=81-100%)	
Fc1cc(Cl)cnc1Oc1cccc(Br)c1-n1cc(C(F)(F)F)cn1 [Compound A59]	5 (5=81-100%)	3 (3=41-60%)	5 (5=81-100%)	4 (4=61-80%)	5 (5=81-100%)	5 (5=81-100%)	5 (5=81-100%)	2 (2=21-40%)	2 (2=21-40%)	4 (4=61-80%)	5 (5=81-100%)	5 (5=81-100%)	
N#Cc1ccnc(Oc2cccc(Br)c2-c2cc(C(F)F)no2)c1 [Compound A87]	4 (4=61-80%)	3 (3=41-60%)	3 (3=41-60%)	3 (3=41-60%)	5 (5=81-100%)	4 (4=61-80%)	4 (4=61-80%)	4 (4=61-80%)	1 (1=0-20%)	4 (4=61-80%)	5 (5=81-100%)	3 (3=41-60%)	
